For assay [1], the target named is T1, SMYD3 (Homo sapiens (Human), UniProt Q9H7B4). In words: SMYD3 biochemical assay (SPA, 3H-SAM methylation of MEKK2 protein substrate). To be noted: read-out: SMYD3 Biochem IC50*. The method in brief: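 Enzyme: untagged full-length human SMYD3 from E. coli; substrate GST-tagged MEKK2 from insect cells. Buffer 25 mM Tris-Cl pH 8.0, 1 mM TCEP, 0.005% BSG/Tween 20. 30 min compound–enzyme preincubation at RT; 3H-SAM/MEKK2 start; stop with cold SAM (100 uM final); SPA readout in cpm.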
T1 sequence (Q9H7B4 whole entry): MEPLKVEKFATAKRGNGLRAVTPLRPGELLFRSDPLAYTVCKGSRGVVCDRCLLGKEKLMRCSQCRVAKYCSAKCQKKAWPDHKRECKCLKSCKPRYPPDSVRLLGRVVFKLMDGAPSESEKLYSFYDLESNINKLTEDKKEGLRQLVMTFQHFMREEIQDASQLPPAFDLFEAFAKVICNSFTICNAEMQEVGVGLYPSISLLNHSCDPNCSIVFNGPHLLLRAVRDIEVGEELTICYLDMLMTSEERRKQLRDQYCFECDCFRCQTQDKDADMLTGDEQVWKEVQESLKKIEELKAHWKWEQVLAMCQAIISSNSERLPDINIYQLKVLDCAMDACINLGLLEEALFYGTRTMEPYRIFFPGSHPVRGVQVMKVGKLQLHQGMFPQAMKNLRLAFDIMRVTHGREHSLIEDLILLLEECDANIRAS

In assay [2] the target is T1, SMYD3. In words: SMYD3 cell assay (Trimethyl-MEKK2 In-Cell Western in 293T/17 cells). In kind it is cell-based. The settings on record: read-out: SMYD3 Cell IC50*. In short, it runs like this:
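In-Cell Western readout: methanol-fixed cells stained for trimethyl-MEKK2 and flag tag, ratio per well normalized to DMSO and background controls.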

For the molecule `CCCN(C)C1CCN(S(=O)(=O)N2[C@@H]3CC[C@H]2C[C@@H](NC(=O)c2cc(C4CC4)on2)C3)CC1` [compound 862, 5-cyclopropyl-N-((1R,3r,5S)-8-((4-(methyl(propyl)amino)piperidin-1-yl)sulfonyl)-8-azabicyclo[3.2.1]octan-3-yl)isoxazole-3-carboxamide], the IC50 (as a rule, the concentration at which inhibition is half-maximal) at SMYD3 [1] stood at 7.69 nM; at SMYD3 [2], 76.5 nM.

For the molecule `CCCNC1CCN(S(=O)(=O)N2[C@@H]3CC[C@H]2C[C@@H](NC(=O)c2cc(C4CC4)on2)C3)CC1` [compound 863, 5-cyclopropyl-N-((1R,3r,5S)-8-((4-(propylamino)piperidin-1-yl)sulfonyl)-8-azabicyclo[3.2.1]octan-3-yl)isoxazole-3-carboxamide], the values for the IC50 on SMYD3 [1] and on SMYD3 [2] were 7.77 nM and 80 nM, respectively.

With `CN1CC2CC1CN2S(=O)(=O)N1[C@@H]2CC[C@H]1C[C@@H](NC(=O)c1cc(C3CC3)on1)C2` [compound 864, 5-cyclopropyl-N-((1R,3r,5S)-8-((5-methyl-2,5-diazabicyclo[2.2.1]heptan-2-yl)sulfonyl)-8-azabicyclo[3.2.1]octan-3-yl)isoxazole-3-carboxamide], the IC50 was determined as 8.22 nM on SMYD3 [1] and 86.2 nM on SMYD3 [2].

On to `CCNC1CCN(S(=O)(=O)N2[C@@H]3CC[C@H]2C[C@@H](NC(=O)c2cc(C4CC4)on2)C3)CC1` [compound 865, 5-cyclopropyl-N-((1R,3r,5S)-8-((4-(ethylamino)piperidin-1-yl)sulfonyl)-8-azabicyclo[3.2.1]octan-3-yl)isoxazole-3-carboxamide], for which the IC50 is 8.55 nM at SMYD3 [1] and 90.2 nM on SMYD3 [2].

`CC(C)CN1C2CCC1CN(S(=O)(=O)N1[C@@H]3CC[C@H]1C[C@@H](NC(=O)c1cc(C4CC4)on1)C3)C2` [compound 866, 5-cyclopropyl-N-((1R,3r,5S)-8-((8-isobutyl-3,8-diazabicyclo[3.2.1]octan-3-yl)sulfonyl)-8-azabicyclo[3.2.1]octan-3-yl)isoxazole-3-carboxamide]: the IC50 on SMYD3 [1] was 8.63 nM; at SMYD3 [2], 201 nM.

Take `O=C(N[C@H]1C[C@H]2CC[C@@H](C1)N2S(=O)(=O)N1CC2CCC(C1)N2CCc1ccccc1)c1cc(C2CC2)on1` [compound 867, 5-cyclopropyl-N-((1R,3r,5S)-8-((8-phenethyl-3,8-diazabicyclo[3.2.1]octan-3-yl)sulfonyl)-8-azabicyclo[3.2.1]octan-3-yl)isoxazole-3-carboxamide]: the IC50 on SMYD3 [1] amounted to 8.67 nM; at SMYD3 [2], 844 nM.

Consider `O=C(N[C@H]1C[C@H]2CC[C@@H](C1)N2S(=O)(=O)N1CCC(NCCCN2CCCC2)CC1)c1cc(C2CC2)on1` [compound 868, 5-cyclopropyl-N-((1R,3r,5S)-8-((4-((3-(pyrrolidin-1-yl)propyl)amino)piperidin-1-yl)sulfonyl)-8-azabicyclo[3.2.1]octan-3-yl)isoxazole-3-carboxamide], for which the IC50 was determined as 8.68 nM on SMYD3 [1] and 310 nM at SMYD3 [2].

In the case of `COCCCNC1CCN(S(=O)(=O)N2[C@@H]3CC[C@H]2C[C@@H](NC(=O)c2cc(C4CC4)on2)C3)CC1` [compound 869, 5-cyclopropyl-N-((1R,3r,5S)-8-((4-((3-methoxypropyl)amino)piperidin-1-yl)sulfonyl)-8-azabicyclo[3.2.1]octan-3-yl)isoxazole-3-carboxamide], the IC50 at SMYD3 [1] turned out to be 9.05 nM; on SMYD3 [2], 117 nM.

Consider `COCCNC1CCN(S(=O)(=O)N2[C@@H]3CC[C@H]2C[C@@H](NC(=O)c2cc(C4CC4)on2)C3)CC1` [compound 870, 5-cyclopropyl-N-((1R,3r,5S)-8-((4-((2-methoxyethyl)amino)piperidin-1-yl)sulfonyl)-8-azabicyclo[3.2.1]octan-3-yl)isoxazole-3-carboxamide], for which the figures for the IC50 on SMYD3 [1] and on SMYD3 [2] were 9.34 nM and 130 nM, respectively.

Take `CC(C)c1cc(C(=O)N[C@H]2C[C@H]3CC[C@@H](C2)N3S(=O)(=O)[C@H]2CC[C@H](N)CC2)no1` [compound 871, N-((1R,3R,5S)-8-(((1r,4R)-4-aminocyclohexyl)sulfonyl)-8-azabicyclo[3.2.1]octan-3-yl)-5-isopropylisoxazole-3-carboxamide]: the IC50 at SMYD3 [1] came out at 9.38 nM; at SMYD3 [2], 86.7 nM.

`CCN(CC)C1CCN(S(=O)(=O)N2CC[C@H](NC(=O)c3cc(C4CC4)on3)C[C@@H]2C)CC1` [compound 872, 5-cyclopropyl-N-((2S,4S)-1-((4-(diethylamino)piperidin-1-yl)sulfonyl)-2-methylpiperidin-4-yl)isoxazole-3-carboxamide]: the IC50 on SMYD3 [1] was 9.46 nM; on SMYD3 [2] it was 183 nM.

Consider `C[C@H]1CN(S(=O)(=O)[C@H]2CC[C@@H](N)CC2)CC[C@H]1NC(=O)c1cc(C2CC2)on1` [compound 873, N-((3S,4R)-1-(((1s,4R)-4-aminocyclohexyl)sulfonyl)-3-methylpiperidin-4-yl)-5-cyclopropylisoxazole-3-carboxamide], for which the IC50 on SMYD3 [1] was determined as 9.62 nM; at SMYD3 [2], 169 nM.

With `CN(CCCN1CCCC1)C1CCN(S(=O)(=O)N2[C@@H]3CC[C@H]2C[C@@H](NC(=O)c2cc(C4CC4)on2)C3)CC1` [compound 874, 5-cyclopropyl-N-((1R,3r,5S)-8-((4-(methyl(3-(pyrrolidin-1-yl)propyl)amino)piperidin-1-yl)sulfonyl)-8-azabicyclo[3.2.1]octan-3-yl)isoxazole-3-carboxamide], the figures for the IC50 on SMYD3 [1] and on SMYD3 [2] were 9.87 nM and 237 nM, respectively.

Regarding `C[C@H](C1CCN(C)CC1)S(=O)(=O)N1[C@@H]2CC[C@H]1C[C@@H](NC(=O)c1cc(C3CC3)on1)C2` [compound 876, 5-cyclopropyl-N-((1R,3R,5S)-8-(((R)-1-(1-methylpiperidin-4-yl)ethyl)sulfonyl)-8-azabicyclo[3.2.1]octan-3-yl)isoxazole-3-carboxamide], the results for the IC50 at SMYD3 [1] and on SMYD3 [2] were 10 nM and 186 nM, respectively.

Regarding `C[C@@H]1C[C@@H](NS(=O)(=O)N2[C@@H]3CC[C@H]2C[C@@H](NC(=O)c2cc(C4CC4)on2)C3)CCN1` [compound 877, 5-cyclopropyl-N-((1R,3S,5S)-8-(N-((2R,4S)-2-methylpiperidin-4-yl)sulfamoyl)-8-azabicyclo[3.2.1]octan-3-yl)isoxazole-3-carboxamide], the IC50 at SMYD3 [1] turned out to be 10 nM; on SMYD3 [2] it was 176 nM.

As to `O=C(N[C@H]1C[C@H]2CC[C@@H](C1)N2S(=O)(=O)[C@@H]1CCCCNC1)c1cc(C2CC2)on1` [compound 878, N-((1R,3R,5S)-8-(((R)-azepan-3-yl)sulfonyl)-8-azabicyclo[3.2.1]octan-3-yl)-5-cyclopropylisoxazole-3-carboxamide], the IC50 was 10.1 nM at SMYD3 [1] and 241 nM at SMYD3 [2].

Consider `CC(C)c1cc(C(=O)N[C@H]2C[C@H]3CC[C@@H](C2)N3S(=O)(=O)CC2CCN(C)CC2)no1` [compound 879, 5-isopropyl-N-((1R,3r,5S)-8-(((1-methylpiperidin-4-yl)methyl)sulfonyl)-8-azabicyclo[3.2.1]octan-3-yl)isoxazole-3-carboxamide], for which the values for the IC50 at SMYD3 [1] and on SMYD3 [2] were 10.7 nM and 206 nM, respectively.

For the molecule `CN(Cc1ccccc1)C1CCN(S(=O)(=O)N2[C@@H]3CC[C@H]2C[C@@H](NC(=O)c2cc(C4CC4)on2)C3)CC1` [compound 880, N-((1R,3r,5S)-8-((4-(benzyl(methyl)amino)piperidin-1-yl)sulfonyl)-8-azabicyclo[3.2.1]octan-3-yl)-5-cyclopropylisoxazole-3-carboxamide], the half-inhibitory concentration (IC50) is 10.8 nM on SMYD3 [1] and 455 nM at SMYD3 [2].

Turning to `O=C(N[C@H]1C[C@H]2CC[C@@H](C1)N2S(=O)(=O)N1CC2CCC(C1)N2CCO)c1cc(C2CC2)on1` [compound 881, 5-cyclopropyl-N-((1R,3r,5S)-8-((8-(2-hydroxyethyl)-3,8-diazabicyclo[3.2.1]octan-3-yl)sulfonyl)-8-azabicyclo[3.2.1]octan-3-yl)isoxazole-3-carboxamide], the IC50 was 10.9 nM on SMYD3 [1] and 68.9 nM at SMYD3 [2].

Take `C[C@@H](C1CCNCC1)S(=O)(=O)N1[C@@H]2CC[C@H]1C[C@@H](NC(=O)c1cc(C3CC3)on1)C2` [compound 882, 5-cyclopropyl-N-((1R,3S,5S)-8-(((S)-1-(piperidin-4-yl)ethyl)sulfonyl)-8-azabicyclo[3.2.1]octan-3-yl)isoxazole-3-carboxamide]: the results for the concentration for half-maximal inhibition (IC50) at SMYD3 [1] and at SMYD3 [2] were 11.2 nM and 85.6 nM, respectively.

For the molecule `O=C(N[C@H]1C[C@H]2CC[C@@H](C1)N2S(=O)(=O)[C@H]1CCCCNC1)c1cc(C2CC2)on1` [compound 883, N-((1R,3S,5S)-8-(((S)-azepan-3-yl)sulfonyl)-8-azabicyclo[3.2.1]octan-3-yl)-5-cyclopropylisoxazole-3-carboxamide], the IC50 came out at 12 nM on SMYD3 [1] and 128 nM at SMYD3 [2].

Regarding `O=C(N[C@H]1C[C@H]2CC[C@@H](C1)N2S(=O)(=O)NC1CCN[C@@H](Cc2ccccc2)C1)c1cc(C2CC2)on1` (stereo partly drawn) [compound 884, N-((1R,3S,5S)-8-(N-((2S)-2-benzylpiperidin-4-yl)sulfamoyl)-8-azabicyclo[3.2.1]octan-3-yl)-5-cyclopropylisoxazole-3-carboxamide], the IC50 at SMYD3 [1] turned out to be 12.1 nM; on SMYD3 [2] it was 283 nM.

`CN[C@H]1CC[C@H](S(=O)(=O)N2CC[C@@H](NC(=O)c3cc(C4CC4)on3)[C@@H](C)C2)CC1` [compound 885, 5-cyclopropyl-N-((3S,4R)-3-methyl-1-(((1r,4S)-4-(methylamino)cyclohexyl)sulfonyl)piperidin-4-yl)isoxazole-3-carboxamide]: the IC50 at SMYD3 [1] came out at 12.1 nM; on SMYD3 [2], 157 nM.

In the case of `C[C@H]1C[C@@H](NS(=O)(=O)N2[C@@H]3CC[C@H]2C[C@@H](NC(=O)c2cc(C4CC4)on2)C3)CCN1` [compound 886, 5-cyclopropyl-N-((1R,3S,5S)-8-(N-((2S,4S)-2-methylpiperidin-4-yl)sulfamoyl)-8-azabicyclo[3.2.1]octan-3-yl)isoxazole-3-carboxamide], the IC50 at SMYD3 [1] amounted to 12.1 nM; on SMYD3 [2], 205 nM.

Values taken from patent US10577363B2, “Substituted piperidine compounds” (EPIZYME, INC., priority 2014, dated 2020).
